In ChEMBL document CHEMBL1139867, “Discovery of the HCV NS3/4A protease inhibitor (1R,5S)-N-[3-amino-1-(cyclobutylmethyl)-2,3-dioxopropyl]-3- [2(S)-[[[(1,1-dimethylethyl)amino]carbonyl]amino]-3,3-dimethyl-1-oxobutyl]- 6,6-dimethyl-3-azabicyclo[3.1.0]hexan-2(S)-carboxamide (Sch 503034) II. Key steps in structure-based optimization” (J Med Chem, 2007):

Target: Hepatitis C virus serine protease, NS3/NS4A (Hepatitis C virus, UniProt A3EZI9+D2K2A8)
Assay: Inhibition of HCV genotype H 1a NS3/4A protease
Assay type: protein-complex assay

Hepatitis C virus serine protease, NS3/NS4A, sequence (D2K2A8 whole entry): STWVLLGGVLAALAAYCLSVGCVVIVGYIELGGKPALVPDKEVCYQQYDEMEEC
Hepatitis C virus serine protease, NS3/NS4A, sequence (A3EZI9 whole entry): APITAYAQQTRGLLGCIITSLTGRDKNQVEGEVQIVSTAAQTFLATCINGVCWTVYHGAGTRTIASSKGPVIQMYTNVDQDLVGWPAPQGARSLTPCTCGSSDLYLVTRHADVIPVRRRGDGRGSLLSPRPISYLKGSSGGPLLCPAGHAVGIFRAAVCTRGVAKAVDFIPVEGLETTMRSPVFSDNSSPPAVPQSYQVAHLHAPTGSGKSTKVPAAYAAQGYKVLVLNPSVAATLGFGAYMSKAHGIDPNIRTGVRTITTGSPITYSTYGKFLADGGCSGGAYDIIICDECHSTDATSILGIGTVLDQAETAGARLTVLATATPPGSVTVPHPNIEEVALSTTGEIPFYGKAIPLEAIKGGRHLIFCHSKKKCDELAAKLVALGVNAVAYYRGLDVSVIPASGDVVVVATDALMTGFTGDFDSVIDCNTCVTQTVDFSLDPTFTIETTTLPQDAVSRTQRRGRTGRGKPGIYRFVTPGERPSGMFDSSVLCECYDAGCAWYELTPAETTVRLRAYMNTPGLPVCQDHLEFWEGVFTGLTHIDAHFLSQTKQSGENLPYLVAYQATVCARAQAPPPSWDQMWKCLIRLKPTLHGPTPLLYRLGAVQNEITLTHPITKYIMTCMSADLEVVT

| Ki [nM] | Structure (SMILES) |
| --- | --- |
| 25 | CC(C)(C)OC(=O)NC(C(=O)N1C[C@H]2[C@@H](C1C(=O)N[C@@H](CC1CCC1)C(=O)C(N)=O)C2(C)C)C1CCCCC1 (stereo partly drawn) |
| 800 | COC(=O)NC(C(=O)N1C[C@H]2[C@@H](C1C(=O)N[C@@H](CC1CC1)C(=O)C(N)=O)C2(C)C)C1CCCCC1 (stereo partly drawn) |
| 15000 | CC(C)C[C@H](NC(=O)C(NC(=O)OC(C)(C)C)C(C)(C)C)C(=O)N[C@@H](CC1CCC1)C(=O)C(N)=O (stereo partly drawn) |
| 400 | CC(C)C[C@H](NC(=O)C1[C@@H]2[C@H](CN1C(=O)C(NC(=O)OC(C)(C)C)C1CCCCC1)C2(C)C)C(=O)C(N)=O (stereo partly drawn) |
| 5000 | CC(C)(C)NC(=O)NC(C(=O)N1CCC[C@H]1C(=O)N[C@@H](CC1CCC1)C(=O)C(N)=O)C(C)(C)C (stereo partly drawn) |
| 50 | CC(C)(C)NC(=O)NC(C(=O)N1C[C@H]2[C@@H](C1C(=O)N[C@@H](CC1CC1)C(=O)C(N)=O)C2(C)C)C1CCCCC1 (stereo partly drawn) |
| 230 | CCOC(=O)NC(C(=O)N1C[C@H]2[C@@H](C1C(=O)N[C@@H](CC1CC1)C(=O)C(N)=O)C2(C)C)C1CCCCC1 (stereo partly drawn) |
| 1800 | CC(C)(C)NC(=O)NC(C(=O)N1C[C@H]2[C@@H](C1C(=O)NC(C(=O)C(N)=O)C1CCCC1)C2(C)C)C(C)(C)C (stereo partly drawn) |
| 50 | CC(C)(C)NC(=O)NC(C(=O)N1C[C@H]2[C@@H](C1C(=O)N[C@@H](CC1CC1(F)F)C(=O)C(N)=O)C2(C)C)C(C)(C)C (stereo partly drawn) |
| 150 | CC(C)(C)OC(=O)NC(C(=O)N1C[C@H]2[C@@H](C1C(=O)N[C@@H](CC1CCCC1)C(=O)C(N)=O)C2(C)C)C1CCCCC1 (stereo partly drawn) |
| 480 | CC(C)C[C@H](NC(=O)C1[C@@H]2[C@H](CN1C(=O)C(NC(=O)OC(C)(C)C)C(C)(C)C)C2(C)C)C(=O)C(N)=O (stereo partly drawn) |
| 14 | CC(C)(C)NC(=O)NC(C(=O)N1C[C@H]2[C@@H](C1C(=O)N[C@@H](CC1CCC1)C(=O)C(N)=O)C2(C)C)C(C)(C)C (stereo partly drawn) |
| 960 | CC(C)(C)NC(=O)NC(C(=O)N1C[C@@H]2OC(C)(C)[C@@H]2C1C(=O)N[C@@H](CC1CC1)C(=O)C(N)=O)C(C)(C)C (stereo partly drawn) |
| > 69000 | CC(C)(C)OC(=O)NC(C(=O)N1C[C@H]2[C@@H](C1C(=O)NC(C(=O)C(N)=O)C(C)(C)C)C2(C)C)C(C)(C)C (stereo partly drawn) |
| 100 | CC(C)[C@H](NC(=O)NC(C)(C)C)C(=O)N1C[C@H]2[C@@H](C1C(=O)N[C@@H](CC1CC1)C(=O)C(N)=O)C2(C)C (stereo partly drawn) |
| 13 | CC(C)(C)NC(=O)NC(C(=O)N1C[C@H]2[C@@H](C1C(=O)N[C@@H](CC1CC1)C(=O)C(N)=O)C2(C)C)C(C)(C)C (stereo partly drawn) |
| 100 | CCC[C@H](NC(=O)C1[C@@H]2[C@H](CN1C(=O)C(NC(=O)OC(C)(C)C)C1CCCCC1)C2(C)C)C(=O)C(N)=O (stereo partly drawn) |

| Ki [nM] | Structure (SMILES) |
| --- | --- |
| 140 | CC(C)(C)NC(=O)NC(C(=O)N1C[C@H]2[C@@H](C1C(=O)N[C@@H](CC1CCC1)C(=O)C(N)=O)C2(F)F)C(C)(C)C (stereo partly drawn) |
| 740 | CCC(NC(=O)C1[C@@H]2[C@H](CN1C(=O)C(NC(=O)OC(C)(C)C)C1CCCCC1)C2(C)C)C(=O)C(N)=O (stereo partly drawn) |
| 500 | CC(C)(C)NC(=O)NC(C(=O)N1C[C@@H]2OC(C)(C)C[C@@H]2C1C(=O)N[C@@H](CC1CCC1)C(=O)C(N)=O)C(C)(C)C (stereo partly drawn) |
| > 12000 | CC(C)(C)OC(=O)NC(C(=O)N1C[C@H]2[C@@H](C1C(=O)N[C@@H](CC1CCCCC1)C(=O)C(N)=O)C2(C)C)C1CCCCC1 (stereo partly drawn) |
| 1600 | CC(C)(C)NC(=O)NC(C(=O)N1C[C@H]2[C@@H](C1C(=O)NC(C(=O)C(N)=O)C1CC1)C2(C)C)C(C)(C)C (stereo partly drawn) |
| 19 | CC(C)(C)NC(=O)NC(C(=O)N1C[C@H]2[C@@H](C1C(=O)N[C@@H](CC1CCC1)C(=O)C(N)=O)C2(Cl)Cl)C(C)(C)C (stereo partly drawn) |
| 360 | CCCC[C@H](NC(=O)C1[C@@H]2[C@H](CN1C(=O)C(NC(=O)OC(C)(C)C)C(C)(C)C)C2(C)C)C(=O)C(N)=O (stereo partly drawn) |
| 60 | CC(C)OC(=O)NC(C(=O)N1C[C@H]2[C@@H](C1C(=O)N[C@@H](CC1CC1)C(=O)C(N)=O)C2(C)C)C1CCCCC1 (stereo partly drawn) |
| 115 | CC(C)(C)NC(=O)NC(C(=O)N1C[C@H]2[C@@H](C1C(=O)N[C@@H](CC1CC(F)(F)C1)C(=O)C(N)=O)C2(C)C)C(C)(C)C (stereo partly drawn) |
| 54 | CCC[C@H](NC(=O)C1[C@@H]2[C@H](CN1C(=O)C(NC(=O)NC(C)(C)C)C1CCCCC1)C2(C)C)C(=O)C(N)=O (stereo partly drawn) |
| 220 | CCC[C@H](NC(=O)C1[C@@H]2[C@H](CN1C(=O)C(NC(=O)OC(C)(C)C)C(C)(C)C)C2(C)C)C(=O)C(N)=O (stereo partly drawn) |
| 25 | CC(C)(C)OC(=O)NC(C(=O)N1C[C@H]2[C@@H](C1C(=O)N[C@@H](CC1CC1)C(=O)C(N)=O)C2(C)C)C1CCCCC1 (stereo partly drawn) |
| 68 | CC(=O)N[C@H](C(=O)NC(C(=O)N1C[C@H]2[C@@H](C1C(=O)N[C@@H](CC1CC1)C(=O)C(N)=O)C2(C)C)C1CCCCC1)C(C)C (stereo partly drawn) |
| 38 | CC(=O)N[C@H](C(=O)NC(C(=O)N1C[C@H]2[C@@H](C1C(=O)N[C@@H](CC1CCC1)C(=O)C(N)=O)C2(C)C)C(C)(C)C)C(C)C (stereo partly drawn) |
| 100 | CC(C)(C)NC(=O)NC(C(=O)N1C[C@H]2[C@@H](C1C(=O)NC(C(=O)C(N)=O)C1CCC1)C2(C)C)C(C)(C)C (stereo partly drawn) |
| > 3300 | CC(C)(C)C[C@H](NC(=O)C1[C@@H]2[C@H](CN1C(=O)C(NC(=O)OC(C)(C)C)C(C)(C)C)C2(C)C)C(=O)C(N)=O (stereo partly drawn) |
